Type in all cases: in vivo
The test system of experiment [1] is carrageenan-induced prostatitis model in male Sprague-Dawley rats. Put plainly: Pelvic pain (von Frey filaments) in carrageenan-induced prostatitis model.
In experiment [2] the test system is carrageenan-induced pelvic pain in male Sprague-Dawley rats. Put plainly: Previous study: carrageenan-induced pelvic pain, AQX-1125 3, 10 and 30 mg/kg. The text has this: An animal model of inflammation-induced pelvic pain for inflammatory CP/CPPS was developed and validated using intraprostatic (i.prost.) injection of carrageenan in male Sprague-Dawley rats (adapted from Radhakrishnan, R. and Nallu, R. S., 2009. Development and characterization of a novel animal model of prostate inflammation-induced chronic pelvic pain, Inflammopharmacology, 17: 23-28). This animal model was characterized by both referred mechanical allodynia (decreased mechanical threshold in response to innocuous von Frey forces) and referred mechanical hyperalgesia (increased nociceptive scores in response to noxious von Frey forces) (Augé C. et al., 2012, Nociceptive measures in chronic prostatitis: a model of inflammation-induced pelvic pain in rats, 14th World Congress on Pain (Milan, Italy)).

The test system of experiment [3] is carrageenan-induced prostatitis model in male Sprague-Dawley rats. Put plainly: Pelvic pain (von Frey filaments) in carrageenan-induced prostatitis model. On the procedure:
Animals were acclimatized to the laboratory conditions for at least 3 days before the start of experiments. Rats were housed in groups of 2 in polysulfone type Sealsafe plus GR900 cages (Tecniplast, Lyon, France) on a bed of wood chips with free access to food and water ad libitum. Species appropriate environmental enrichment was added to the cages. The animal house was maintained under artificial lighting 7:00 a.m. to 7:00 p.m. in a controlled ambient temperature of 22±2° C., and relative humidity maintained at 55±10%.
Mechanical stimulation was performed using von Frey filaments of different forces.
For each day of administration, the stock solution was allowed to equilibrate to room temperature under stirring, for at least 30 min.
Carrageenan was purchased from Sigma-Aldrich. Carrageenan (prepared fresh each day of injection) was dissolved in sterile physiological saline at a final concentration of 30 mg/mL (w/v).
Seven experimental groups of 10 animals were included in this study as described in the table below.
At D0, D+1, D+3 and D+7 administrations were performed 2 h prior to von Frey testing. […] On the morning of each experimental day, rats were weighed and administrations were performed at a volume of 5 mL/kg.
(§1) Surgical procedures were performed in morning, as follows: anaesthesia was induced by 5% isoflurane and maintained with 2.5% isoflurane for the duration of the procedure. The surgical area (lower abdomen above the penis) and the scrotal skin were shaved. An incision was made in the skin and abdominal wall to expose both ventral lobes of the prostate gland. Carrageenan (30 mg/mL) was injected in both right and left ventral lobes of the prostate (˜12.5 μL per lobe).
Control rats were injected with physiological saline under the same experimental conditions as carrageenan (i.e. i.prost., ˜12.5 μL per lobe).
After i.prost. injection, the wounds in both muscles were closed using absorbable suture and the skin layers were closed using permanent suture.
Pelvic pain was evaluated in a non-blinded manner by applying 6 von Frey filaments of increasing forces (0.16, 0.4, 0.6, 1, 1.4 and 2 g) to the scrotum area, with an interval of 5 seconds between each filament.
Prior to testing, the scrotal skin area designated for mechanical stimulation of each animal was shaved. Animals were placed on a raised wire mesh floor under individual transparent Plexiglas boxes and acclimatized for at least 30 min before starting the von Frey test. Filaments were then applied 1-2 seconds through the mesh floor with enough strength to cause the filament to slightly bend. Each filament was tested 3 times with an interval of 5 seconds between each application.
Nociceptive behavioral scores to von Frey filaments were assessed just before saline or carrageenan injection, in order to obtain basal values (D0), and at defined time points (D+1, D+3 and D+7) after saline or carrageenan injection.
Nociceptive behaviors were scored for each animal and each filament as follows: […]
The source holds these as a separate data set.

For experiment [4], the system named is ventral prostate lobes of carrageenan-injected male Sprague-Dawley rats. The experiment in a line: Ventral prostate lobes weight 7 days after carrageenan i.prost. injection. The settings on record: AQX-1125 0.3, 1, 3 or 10 mg/kg p.o.; seven days after carrageenan injection. As to the method: The whole prostate and ventral prostate lobes were weighed using a Scout® Pro balance (OHAUS, Nänikon, Switzerland).
AQX-1125 (0.3, 1, 3 and 10 mg/kg) or saline vehicle were administered orally (p.o.) once a day from D−3 to D+7 for a total of 11 administrations. At D0, D+1, D+3 and D+7 administrations were performed 2 h prior to von Frey testing. […] On the morning of each experimental day, rats were weighed and administrations were performed at a volume of 5 mL/kg.
as §1
After blood sampling, rats were sacrificed by cervical dislocation and the whole prostates were rapidly collected and weighed. Then both ventral prostate lobes were dissected and weighed together.

The mark [5] stands for this setting: Ibuprofen 300 mg/kg p.o. once at D+3, 1 h prior to testing, p<0.001.

Regarding `CC(C)Cc1ccc(C(C)C(=O)O)cc1` (racemic) [Ibuprofen, (RS)-2-(4-(2-methylpropyl)phenyl)propanoic acid], in experiment [1] (setting [5]), the “nociceptive scores vs vehicle” value is given as “decreases in nociceptive scores” and the “nociceptive threshold vs vehicle” value was “a significant increase in the nociceptive threshold was observed”. The carrageenan-induced pelvic pain entry in experiment [1] (Ibuprofen 300 mg/kg, 1 h after oral administration) was “alleviated carrageenan-induced pelvic pain”.

`C=C1CC[C@H]2[C@H](CN)[C@@H]([C@@]3(C)CC[C@H](O)C[C@@H]3CO)CC[C@]12C` [AQX-1125, (1S,3S,4R)-4-((4R,7aS)-4-(aminomethyl)-7a-methyl-1-methyleneoctahydro-1H-inden-5-yl)-3-(hydroxymethyl)-4-methylcyclohexanol]: the “anti-nociceptive properties on carrageenan-induced pelvic pain” value is “strong anti-nociceptive properties” in experiment [2] (AQX-1125 3, 10 and 30 mg/kg p.o. once a day during 11 days); “strong anti-nociceptive properties” in experiment [3] (AQX-1125 repeated oral treatments once a day during 11 days at 0.3, 1 and 3 mg/kg). Also, the “dose at which maximal effect was reached” value in experiment [2] (doses tested 3, 10 and 30 mg/kg p.o.) amounted to 3 mg/kg; in experiment [3] (AQX-1125 p.o. once a day, doses tested 0.3, 1, 3 and 10 mg/kg) it was 3 mg/kg. For the same molecule, the “nociceptive threshold vs vehicle” value in experiment [3] (AQX-1125 10 mg/kg p.o. once a day, D+1 p>0.05, D+3 and D+7 p<0.05) is “reached the significance level only at day 3 and 7”; in experiment [3] (AQX-1125 0.3, 1 and 3 mg/kg p.o. once a day, day 1, 3 and 7 post-carrageenan, p<0.05), “significantly and dose-dependently increased the nociceptive threshold”. Besides, the “AUC (0.16-2 g) of nociceptive scores vs vehicle” value was “a significant effect was observed only at day 3 and 7” in experiment [3] (AQX-1125 10 mg/kg p.o., D+1 p>0.05, D+3 p<0.01, D+7 p<0.05); “significant decreases in AUC (0.16-2 g) were observed” in experiment [3] (AQX-1125 0.3, 1 and 3 mg/kg p.o., all tested time-points, p<0.01). In addition, in experiment [3] (AQX-1125 0.3, 1, 3 and 10 mg/kg p.o., all tested time-points (D+1, D+3, D+7)), the “nociceptive scores vs vehicle” value is “decreases in nociceptive scores were observed”. Besides, the “significance of effect on nociceptive scores” value in experiment [3] (AQX-1125 all doses, 10 mg/kg at D1 p=0.0638) was “reached significance, except for the 10 mg/kg dose at D1”. For the same molecule, the “anti-nociceptive properties beyond the optimal dose” value in experiment [3] (AQX-1125 beyond 3 mg/kg (10 mg/kg p.o.)) is “less pronounced anti-nociceptive properties”. Besides, the carrageenan-induced pelvic pain result in experiment [3] (AQX-1125 daily oral treatments at 0.3, 1 and 3 mg/kg) was “significant and dose-related decreases in carrageenan-induced pelvic pain”. Further, the “optimal dose for pain management” value in experiment [3] (rat model of carrageenan-induced chronic prostatitis, p.o.) is 3 mg/kg. In experiment [4], the “ventral prostate lobes weight as a ratio of whole prostate weight” value is “had no effect on ventral prostate lobes weights”. In addition, the “ventral prostate lobes weight expressed in mg” value in experiment [4] is given as “had no effect on ventral prostate lobes weights”.

Values taken from patent US20180085460A1, “METHODS OF TREATING PROSTATITIS” (Aquinox Pharmaceuticals (Canada) Inc., priority 2016, published 2018).
